Laboratory results as given in publication PMC9837764 (Nature Communications, 2023).
Where “and” joins values, the source holds several entries; their conditions need not be identical. Identical values can stand only once. Like-named read-outs stand apart in the source and are kept apart here.

Legend:
[1] = molecular target: SARS-CoV-2 RNA polymerase, nsp12, 7, and 8 (Severe acute respiratory syndrome coronavirus 2, UniProt P0DTD1); assay: SARS-CoV-2 RNA polymerase inhibition assay (pyrophosphate luminescence); format: biochemical
[2] = system: Salmonella typhimurium TA 102; assay: Ames test, strain TA 102; settings: Positive Control 5 µg/plate
SARS-CoV-2 [3] = assay: Cell-associated virus RNA in SARS-CoV-2-infected human primary monocytes; format: cell-based
Procedure: (§1) Human primary monocytes were obtained after 3 h of plastic adherence of peripheral blood mononuclear cells (PBMCs). The use of primary human cell was approved by Institutional Review Board from the Oswaldo Cruz Foundation under protocol 49971421.8.0000.5248 with signed informed consent in accordance with the Hemotherapy Service of Hospital Clementino Fraga from the Federal University of Rio de Janeiro. All volunteers were de-identified. PBMCs were isolated from healthy donors by density gradient centrifugation (Ficoll-Paque, GE Healthcare). PBMCs (2.0 × 10^6 cells) were plated onto 48-well plates (NalgeNunc) in RPMI-1640 without serum for 2–4 h. Nonadherent cells were removed, and the remaining monocytes were maintained in DMEM with 5% human serum (HS; Millipore) and penicillin/streptomycin. The purity of human monocytes was above 95%, as determined by flow cytometric analysis (FACScan; Becton Dickinson) using anti-CD3 (BD Biosciences, cat # 555342, 1:40), anti-CD16 (Southern Biotech, cat # 561313, 1:20) and APC mouse IgG2a isotype (BD Biosciences, cat # 550882, 1/40) and PE mouse IgG1 isotype (BD Biosciences, 555749, 1/20).
Total viral RNA from a culture supernatant and/or monolayers was extracted using QIAamp Viral RNA (Qiagen®) according to the manufacturer’s instructions. Quantitative RT‒PCR was performed using GoTaq® Probe qPCR and RT-qPCR Systems (Promega) in a StepOne™ Real-Time PCR System (Thermo Fisher Scientific) ABI PRISM 7500 Sequence Detection System (Applied Biosystems). Amplifications were carried out in 25 µL reaction mixtures containing 2× reaction mix buffer, […] of each primer, 10 µM of probe, and 5 µL of RNA template. Primers, probes, and cycling conditions recommended by the Centers for Disease Control and Prevention (CDC) protocol were used to detect SARS-CoV-2[52]. The standard curve method was employed for virus quantification. For reference to the cell amounts used, the housekeeping gene RNAse P (F-5′-[…] -3′, R-5′[…] -3′, P-5′-FAM-[…] -BHQ-1-3′) was amplified. The Ct values for this target were compared to those obtained for different cell amounts, 10^7 to 10^2, for calibration.

TNF-α = TNF-α in supernatant of SARS-CoV-2-infected human primary monocytes; format: cell-based
Procedure: as §1

IL-6 = IL-6 in supernatant of SARS-CoV-2-infected human primary monocytes; format: cell-based
Procedure: as §1

SARS-CoV-2 [4] = assay: Genomic and subgenomic viral RNA in infected Calu-3 cells (RT-PCR); format: cell-based
SARS-CoV-2 [5] = assay: Combination of RdRp inhibitors with SARS-CoV-2 nsp14 inhibitors in infected Calu-3 cells, synergy; format: cell-based; set-up: EC99 mean: unit not given here; settings: for EC99 mean: Calu-3 cells, alone or with nsp14 inhibitor at the concentration of the label, unit not given; for EC50: Severe acute respiratory syndrome coronavirus 2, Calu-3, read-out: EC50 mean; for EC90: Severe acute respiratory syndrome coronavirus 2, Calu-3, read-out: EC90 mean
SARS-CoV-2 [6] = assay: Yield-reduction assay, SARS-CoV-2 in Calu-3 cells (titers as PFU/mL in Vero cells)
[7] = infected monocytes, drugs at 10 µM, 24 h, listed as RDV
[8] = Calu-3, 10 µM, 48 h, listed as RDV
[9] = infected Calu-3, compound alone at 10 uM

N#C[C@@]1(c2ccc3c(N)ncnn23)O[C@H](COP(=O)(O)OP(=O)(O)OP(=O)(O)O)[C@@H](O)[C@H]1O [GS-443902]
SARS-CoV-2 RNA polymerase inhibition (Fig2A source data, replicates) ([1]; Drug Concentration 0.001): 3 (2×) and 5 | SARS-CoV-2 RNA polymerase inhibition (Fig2A source data, replicates) ([1]; Drug Concentration 0.01): 6 and 40 and 5 | SARS-CoV-2 RNA polymerase inhibition (Fig2A source data, replicates) ([1]; Drug Concentration 0.1): 65 and 63 and 80 | SARS-CoV-2 RNA polymerase inhibition (Fig2A source data, replicates) ([1]; Drug Concentration 1): 90 (2×) and 53 | SARS-CoV-2 RNA polymerase inhibition (Fig2A source data, replicates) ([1]; Drug Concentration 10): 99 and 90 and 75

Nc1ccc2cc3ccccc3cc2c1 [2-AA, 2-aminoanthracene, reference compound]
Mutagenicity TA 102 +S9 [2]: +

CCC(CC)COC(=O)[C@H](C)N[P@](=O)(OC[C@H]1O[C@@](C#N)(c2ccc3c(N)ncnn23)[C@H](O)[C@@H]1O)Oc1ccccc1 [Remdesivir, remdesivir, reference compound]
Cell-associated virus RNA levels in SARS-CoV-2-infected monocytes (SARS-CoV-2 [3]; Fig. 1c): reduced cell-associated virus RNA levels in a concentration-dependent manner | TNF-α levels in the culture supernatant (Fig1D source data, per donor) (TNF-α; [7]): 1.6 and 1.4 and 0.437 and 0.351 and 5.3 and 4.9 and 4.3 and 6.2 | IL-6 levels in the culture supernatant (Fig1E source data, per donor) (IL-6; [7]): 2.2 and 1.5 and 3.0 and 4.2 and 2.9 and 1.1 | Genomic viral RNA (Fig2B source data, replicates) (SARS-CoV-2 [4]; [8]): 0.221 and 0.22 and 0.2 | Subgenomic viral RNA (Fig2B source data, replicates) (SARS-CoV-2 [4]; [8]): 0.07 and 0.05 and 0.09 | EC99 mean (SARS-CoV-2 [5]): 1.1 | EC50 (SARS-CoV-2 [5]): 90 nM | EC90 (SARS-CoV-2 [5]): 400 nM | EC50 (SARS-CoV-2 [6]; Severe acute respiratory syndrome coronavirus 2, Calu-3): 150 ± 30 nM | EC50 (SARS-CoV-2 [6]; Severe acute respiratory syndrome coronavirus 2, Calu-3, 24 h): 10 ± 3 nM | Inhibition of SARS-CoV-2 infectious titers (Fig1B source data, replicates) (SARS-CoV-2 [6]; additional treatment at 24 h, Drug 0.001, Calu-3, 48 h, listed as RDV): 28 and 35 and 32 | Inhibition of SARS-CoV-2 infectious titers (Fig1B source data, replicates) (SARS-CoV-2 [6]; additional treatment at 24 h, Drug 0.01, listed as RDV): 40 and 60 and 50 | Inhibition of SARS-CoV-2 infectious titers (Fig1B source data, replicates) (SARS-CoV-2 [6]; additional treatment at 24 h, Drug 0.1, listed as RDV): 80 and 70 and 60 | Inhibition of SARS-CoV-2 infectious titers (Fig1B source data, replicates) (SARS-CoV-2 [6]; additional treatment at 24 h, Drug 1): 100 | Inhibition of SARS-CoV-2 infectious titers (Fig1B source data, replicates) (SARS-CoV-2 [6]; additional treatment at 24 h, Drug 10): 100 | Inhibition of SARS-CoV-2 infectious titers (Fig1A source data, replicates) (SARS-CoV-2 [6]; one treatment, Drug 0.001, Calu-3, MOI 0.1, 48 h, listed as RDV): 12 and 16 and 10 | Inhibition of SARS-CoV-2 infectious titers (Fig1A source data, replicates) (SARS-CoV-2 [6]; one treatment, Drug 0.01, listed as RDV): 30 and 50 and 55 | Inhibition of SARS-CoV-2 infectious titers (Fig1A source data, replicates) (SARS-CoV-2 [6]; one treatment, Drug 0.1, listed as RDV): 45 and 50 and 72 | Inhibition of SARS-CoV-2 infectious titers (Fig1A source data, replicates) (SARS-CoV-2 [6]; one treatment, Drug 1): 100 | Inhibition of SARS-CoV-2 infectious titers (Fig1A source data, replicates) (SARS-CoV-2 [6]; one treatment, Drug 10): 100

COC(=O)N[C@H](C(=O)N1CCC[C@H]1c1nc2cc([C@H]3CC[C@H](c4cc5nc([C@@H]6CCCN6C(=O)[C@@H](NC(=O)OC)[C@@H](C)OC)[nH]c5cc4F)N3c3cc(F)c(N4CCC(c5ccc(F)cc5)CC4)c(F)c3)c(F)cc2[nH]1)[C@@H](C)OC [Pibrentasvir, pibrentasvir]
EC99 mean (SARS-CoV-2 [5]): 19 | EC50 (SARS-CoV-2 [5]): 700 nM | EC90 (SARS-CoV-2 [5]): 4200 nM

COC(=O)N[C@H](C(=O)N1CCC[C@H]1C(=O)Nc1ccc([C@@H]2CC[C@@H](c3ccc(NC(=O)[C@@H]4CCCN4C(=O)[C@@H](NC(=O)OC)C(C)C)cc3)N2c2ccc(C(C)(C)C)cc2)cc1)C(C)C [Ombitasvir, ombitasvir]
EC99 mean (SARS-CoV-2 [5]): 18 | EC50 (SARS-CoV-2 [5]): 400 nM | EC90 (SARS-CoV-2 [5]): 3300 nM

COC(=O)N[C@H](C(=O)N1CCC[C@H]1c1nc(-c2ccc(-c3ccc(-c4c[nH]c([C@@H]5CCCN5C(=O)[C@@H](NC(=O)OC)C(C)C)n4)cc3)cc2)c[nH]1)C(C)C [Daclatasvir, daclatasvir]
EC50 (SARS-CoV-2 [5]): 700 nM | EC90 (SARS-CoV-2 [5]): 3800 nM

NC(=O)c1nc(F)c[nH]c1=O [Favipiravir, favipiravir]
EC50 (SARS-CoV-2 [5]): 7800 nM

O=P(O)(O)OP(=O)(O)OP(=O)(O)OC[C@H]1O[C@@H](n2cnc3c(NCc4ccco4)ncnc32)[C@H](O)[C@@H]1O [801-TP, Kinetin ribose 5’-triphosphate]
IC50 [1]: 100 ± 3 nM | IC50 fold higher than that of GS-443902 [1]: 3 fold | SARS-CoV-2 RNA polymerase inhibition (Fig2A source data, replicates) ([1]; Drug Concentration 0.001): 4 and 6 and 8 | SARS-CoV-2 RNA polymerase inhibition (Fig2A source data, replicates) ([1]; Drug Concentration 0.01): 4 and 5 (2×) | SARS-CoV-2 RNA polymerase inhibition (Fig2A source data, replicates) ([1]; Drug Concentration 0.1): 53 and 50 and 55 | SARS-CoV-2 RNA polymerase inhibition (Fig2A source data, replicates) ([1]; Drug Concentration 1): 60 and 47 and 52 | SARS-CoV-2 RNA polymerase inhibition (Fig2A source data, replicates) ([1]; Drug Concentration 10): 70 and 75 and 51

Cc1nnc(C(=O)NC(C)(C)c2nc(C(=O)NCc3ccc(F)cc3)c(O)c(=O)n2C)o1 [RTG, raltegravir]
EC50 (SARS-CoV-2 [5]): 4800 nM | Effects on SARS-CoV-2 replication (SARS-CoV-2 [5]; alone at 5 µM, Calu-3): marginal effects | Virus productive titers (Fig3A source data, replicates) (SARS-CoV-2 [5]; infected Calu-3, RTG alone at 5uM): 224000 and 448000

c1coc(CNc2ncnc3c2ncn3C2CCCCO2)c1 (stereo not shown) [MB-906, 6-furfurylamino-9-(tetrahydropyran-2-yl)−9H-purine]
Antiviral activity, SARS-CoV-2 replication (SARS-CoV-2 [6]; huh-7 and calu-3 cells (Supplementary Fig. 2)): impaired

CC(C)OC(=O)[C@H](C)NP(=O)(OC[C@H]1O[C@@H](n2cnc3c(NCc4ccco4)ncnc32)[C@H](O)[C@@H]1O)Oc1ccccc1 (stereo partly drawn) [MB-711, Phenyl (Isopropoxy-L-alaninyl) Kinetin Riboside Phosphoramidate]
Cell-associated virus RNA levels in SARS-CoV-2-infected monocytes (SARS-CoV-2 [3]): reduced cell-associated virus RNA levels in a concentration-dependent manner | Cell-associated virus RNA loads, inhibition (Fig1C source data, per donor) (SARS-CoV-2 [3]): 2 (2×) and 0 and 32 and 30 and 35 and 40 and 45 and 50 | TNF-α levels in the culture supernatant (Fig1D source data, per donor) (TNF-α): 1.6 and 1.8 and 0.638 and 2.6 and 5.0 and 4.1 | IL-6 levels in the culture supernatant (Fig1E source data, per donor) (IL-6): 2.2 and 1.8 and 0.121 and 4.3 and 3.4 and 5.0 and 1.5 and 2.9 | Genomic viral RNA (Fig2B source data, replicates) (SARS-CoV-2 [4]): 0.3 and 0.45 and 0.2 | Subgenomic viral RNA (Fig2B source data, replicates) (SARS-CoV-2 [4]): 0.6 and 0.8 and 0.5 | Virus productive titers (Fig3A source data, replicates) (SARS-CoV-2 [5]): 46000 and 30000 and 28000 | Virus productive titers (Fig3B source data, replicates) (SARS-CoV-2 [5]): 46000 and 30000 and 45000 | Inhibition of SARS-CoV-2 infectious titers (Fig1A source data, replicates) (SARS-CoV-2 [6]): 20 and 7 and 28 and 24 and 64 and 23 and 25 and 50 and 33 and 60 and 57 and 42 and 79 (2×) and 81 | Inhibition of SARS-CoV-2 infectious titers (Fig1B source data, replicates) (SARS-CoV-2 [6]): 16 (2×) and 20 and 43 and 73 and 50 and 55 and 71 and 77 (2×) and 80 and 75 and 99 and 97 and 95

C[C@H](Cn1cnc2c(N)ncnc21)OCP(=O)(O)O [Tenofovir, tenofovir]
EC50 (SARS-CoV-2 [5]): 4300 nM | Virus productive titers (Fig3A source data, replicates) (SARS-CoV-2 [5]; [9]): 80000 and 88000 and 5000 | Virus productive titers (Fig3B source data, replicates) (SARS-CoV-2 [5]; [9]): 80000 and 88000 and 5000

CC(C)OC(=O)[C@H](C)N[P@](=O)(OC[C@H]1O[C@@H](n2ccc(=O)[nH]c2=O)[C@](C)(F)[C@@H]1O)Oc1ccccc1 [Sofosbuvir, sofosbuvir]
Virus productive titers (Fig3A source data, replicates) (SARS-CoV-2 [5]; [9]): 64000 and 24000 and 240000 | Virus productive titers (Fig3B source data, replicates) (SARS-CoV-2 [5]; [9]): 64000 and 24000 and 240000
